Data published in patent US20050074810A1, “Method for non-invasilvely determining the relative levels of two biological substances” (priority 2001, published 2005).
Like-named read-outs stand apart in the source and are kept apart here.

Settings: subdermal lactate 1.74 mM, ammonium 1.56 mM
Method: Experiments were performed in specially-designed iontophoresis diffusion cells (Laboratory Glass Apparatus, Berkeley, Calif., USA) as represented in FIG. 7.
The anodal and cathodal chambers contacted the outer surface of the skin and contained the receptor (collection) media, respectively, 80 mM Tris/TrisHCl and 25 mM Tris+34 mM Mops (both buffered to pH 7.4).
Dermatomed pig-ear skin was clamped between the two halves of the iontophoresis cell and each chamber was filled with the appropriate solution.
The sub-dermal chamber was filled with the “donor solution which was perfused continuously at 2-3 mL/hour by means of a peristaltic pump.
A current of 0.4 mA (0.5 mA/cm^2) was passed for a total of 5 hours between the Ag/AgCl electrodes which were inserted into the anodal and cathodal chambers.
Every hour, the entire anode and cathode solutions were withdrawn and the chambers were refilled with fresh buffer.

## CC(O)C(=O)O (centres unmarked) [Lactate, lactate]
3 h
  Deduced transport number (×100): 0.59 ± 0.08 ×100
  Extracted flux ratio (×10^3) relative to K^+: 149 ± 3.3 ×10^3
  Extracted flux ratio (×10^3) relative to Na^+: 8.7 ± 0.1 ×10^3
  K for analyte/internal standard couple, internal standard Na^+: 0.66 ± 0.01
5 h
  Deduced transport number (×100): 0.56 ± 0.07 ×100
  Extracted flux ratio (×10^3) relative to K^+: 138 ± 15 ×10^3
  Extracted flux ratio (×10^3) relative to Na^+: 7.8 ± 1.1 ×10^3
  K for analyte/internal standard couple, internal standard Na^+: 0.60 ± 0.08
